Values of other authors in patent EP2535049A1 (Proyecto de Biomedicina Cima, S.L., priority 2011, dated 2012).

Settings: Kulkarni and Patil 2004; Forgue et al., 2006; cited from earlier work

CCCc1nc(C)c2c(=O)[nH]c(-c3cc(S(=O)(=O)N4CCN(CC)CC4)ccc3OCC)nn12 [vardenafil]
half-life in blood serum: 3.4 h
